Reference: patent US12258425B2, “Peptide compositions and methods of use” (priority 2015, dated 2025)
Where a SMILES comes first, the peptide text is derived from it.

How the values were obtained:
[1] = Rabbit intravitreal ocular pharmacokinetic study (vitreous humor and retina); conditions: IVT in Poloxamer or Polysorbate formulations, 10 day course
Procedure: (§1) This study was conducted to determine the concentrations of Compound 1 in vitreous humor (VH) and retina tissue following intravitreal injections of male Dutch Belted rabbits. Concentrations were determined in tissues at 24, 72, 168, and 240 hours post-dose of a 50 μL bilateral intravitreal (IVT) dose.
(§2) Test system included the following: • Species/Strain/Gender: Male Dutch Belted Rabbits • Supplier: Covance Research Products, Inc. • Age Range: 4 to 5 months • Weight at Receipt (Range of • Weights): 1.51-1.85 kg • Administration Route: Intravitreal (IVT) injection • Duration of Treatment: Single Dose per eye • Formulation Concentrations: 2.0, 1.0, and 0.5 mg/mL Compound 1 triacetate • Dose Volume: 50 μL per eye
(§3) An intravitreal (IVT) injection ocular dose of 50 μL was administered to the globe of each of Dutch Belted rabbit eye.
(§4) At the respective time points the rabbits were euthanized by intravenous barbiturate overdose, and eyes were enucleated and snap frozen. Vitreous humor and retina were collected from all animals and analyzed for Compound 1 by LC-MS/MS

[2] = pH-solubility titration (visual: precipitate, turbidity, viscosity, gel); assay type: physicochemical
Procedure: Compound 1 obtained as a trihydrochloride salt, as described in Example 1, and was screened for aqueous solubility at different pHs, by carrying out pH titrations according to the following protocol. In some cases Met-12 was run through an identical experimental procedure to determine its solubility pH profile under the same conditions.
Compound 1 (10 mg) was dissolved in water (270-900 ? L) in a 2 mL clear plastic centrifuge tube with vortexing to give a pH ˜2.4 solution. […] This solution was then diluted with the appropriate amount of cosolvent or other excipient (sugar, surfactant etc.) to produce a clear acidic solution of 10 mg of Compound 1 in […] of the test solution at room temperature ([…]). Small aliquots of a basic solution (usually sodium hydroxide 1.0 M or 0.1 M, but sometimes other bases when investigating buffers) were added using a microliter syringe. Between additions the solution was mixed by vortexing, and the solution was inspected visually for precipitates of various types, turbidity, as a likely sign of microprecipitates, and viscosity to detect gel formation. pH measurements were taken at all these observation points. Some experiments titrated from the endogenous low pH to pH 10, but later titrations were not carried much above pH 7, or sometimes even lower.

[3] = rat, in vivo
Procedure: (§5) Concentrations were determined in tissues at 24 (Group 1), and 72 hours (Groups 1 and 2) post-dose of a 5 μL bilateral intravitreal (IVT) dose.
(§6) Test system included the following: • Species/Strain/Gender: Norway Brown Rats • Supplier: Charles River, Inc. • Age Range: 1 to 2 months • Weight at Receipt (Range of • Weights): 165.9-181.2 g • Administration Route: Intravitreal (IVT) injection • Duration of Treatment: Single dose per eye • Formulation Concentrations: 0.06 mg/mL ONL-1204 triacetate • Dose Volume: 5 μL per eye Harvesting of Ocular Tissues
(§7) Rats were euthanized by intravenous barbiturate overdose, and eyes were enucleated and snap frozen. Vitreous humor (VH) and retina were collected from all animals and analyzed for Compound 1 by LC-MS/MS.
(§8) For each VH unknown or control blank: Weigh VH into a homogenization tube. Add 4 times the VH weight (mg) of ACN:water:1 M hydrochloric acid (70:20:10, v/v/v) (μL) to the homogenization tube. Add zirconium oxide beads, 2.8 and 1.4 mm size. Homogenize all samples on Precellys®: 5500 rpm, 3×30 second cycles, and 20 seconds between cycles, at a temperature between −10 to 0° C.
(§9) For each retina unknown or control blank: • Weigh retina tissue into a homogenization tube. • Add 4 times the tissue weight (mg) of ACN:water:1 M hydrochloric acid (70:20:10, v/v/v) (μL) to the homogenization tube. • Add zirconium oxide beads, 1.4 mm size. • Homogenize all samples on Precellys®: 5500 rpm, 3×30 second cycles, and 20 seconds between cycles, at a temperature between −10 to 0° C. Preparation of Standards, Samples, and Blanks Preparation of Calibration Stock and Working Standards
(§10) One hundred (100) μL of each vitreous humor sample with ACN: formic acid (1000:1, v/v) was then aliquoted. One hundred (100) μL of DMSO:water:formic acid (50:40:10) was added to each vitreous humor sample. The samples were vortex mixed then centrifuged for 10 minutes at 14,000 rpm (4° C.). To 50.0 μL supernatant, 100 μL of working internal standard (50,000 ng/mL APi1887 in water) (water for the blank without internal standard), and 150 μL of water were added. The samples were then vortex mixed and transferred to an autosampler plate for analysis.
(§11) In a polypropylene tube, 50 μL of Brown Norway rat unknown homogenate, bovine control blank or calibration standard Bovine homogenate was added. Fifty (50) μL of DMSO:water:formic acid (50:40:10) was added to each sample. The samples were then vortex mixed and centrifuged for 10 minutes at 14,000 rpm (4° C.). Eighty (80) μL of each sample supernatant was then aliquoted to a 96-well autosampler plate. Forty (40) μL of working internal standard (5,000 ng/mL APi1887 in water) (water for the blank without internal standard), and 120 μL of water were added. The samples were then mixed with a multichannel pipette and analyzed.

[4] = in vivo; conditions: male, Dutch Belted, rabbit
Procedure: as §1, §2, §3, §4

[5] = in vivo; conditions: Brown Norway, rat, 0.3 ug/eye, Mean concentration in rat retina
Procedure: as §5, §6, §7, §8, §9, §10, §11

[6] = rabbit, in vivo
Procedure: as §1, §2, §3, §4

[7] = 0.025 mg/eye, Calculated Concentration in vitreous humor
[8] = 0.05 mg/eye, Calculated Concentration in retina
[9] = 0.05 mg/eye, Calculated Concentration in vitreous humor
[10] = 0.05 mg/eye, Mean concentration in retina
[11] = 0.1 mg/eye, Calculated Concentration in retina
[12] = 0.1 mg/eye, Calculated Concentration in vitreous humor
[13] = 0.1 mg/eye, Mean concentration in retina

CC[C@H](C)[C@H](NC(=O)[C@H](Cc1ccc(O)cc1)NC(=O)[C@H](CC(N)=O)NC(=O)[C@@H](NC(=O)[C@H](C)NC(=O)CNC(=O)[C@H](CC(C)C)NC(=O)[C@H](Cc1ccc(O)cc1)NC(=O)[C@@H](NC(=O)[C@H](Cc1cnc[nH]1)NC(=O)[C@@H](N)Cc1cnc[nH]1)[C@@H](C)CC)C(C)C)C(=O)N[C@@H](Cc1ccc(O)cc1)C(N)=O [Compound 1, His-His-Ile-Tyr-Leu-Gly-Ala-Val-Asn-Tyr-Ile-Tyr-NHz] (H-HHIYLGAVNYIY-NH2)
Irritation / tolerability [1]: no signs of irritation or tolerability issues
Aqueous solubility (in words) [2]: poor aqueous solubility above pH˜3
Behaviour on standing overnight [2]: the solution gelled, and the pH dropped by about 0.2 units
solubility ([2]; pH 2.4): ≥ 40 mg/mL
Clearance from VH in the first 24 hours [3]: about half the drug cleared the VH
Terminal half-life in VH [3]: on the order of several days
level at 24 h [4, 7]: 22000 ng/mL
level at 168 h [4, 7]: 22300 ng/mL
level at 240 h [4, 7]: 18000 ng/mL
tissue level at time at 168 h ([4]; 0.025 mg/eye, Mean concentration in retina): 912 ng/g
tissue level at time at 72 h [4, 8]: 172 ng/g
tissue level at time at 168 h [4, 8]: 204 ng/g
tissue level at time at 240 h [4, 8]: 109 ng/g
level at 24 h [4, 9]: 44000 ng/mL
level at 72 h [4, 9]: 39600 ng/mL
level at 168 h [4, 9]: 25900 ng/mL
tissue level at time at 24 h [4, 10]: 206 ng/g
tissue level at time at 72 h [4, 10]: 95 ng/g
tissue level at time at 168 h [4, 10]: 51 ng/g
tissue level at time at 240 h [4, 10]: 27.3 ng/g
level at 240 h [4, 11]: 112 ng/mL
tissue level at time at 240 h [4, 11]: 559 ng/g
level at 24 h [4, 12]: 75900 ng/mL
level at 72 h [4, 12]: 125000 ng/mL
level at 168 h [4, 12]: 84800 ng/mL
level at 240 h [4, 12]: 79400 ng/mL
tissue level at time at 24 h [4, 13]: 596 ng/g
tissue level at time at 72 h [4, 13]: 1630 ng/g
tissue level at time at 168 h [4, 13]: 354 ng/g
tissue level at time at 240 h [4, 13]: 490 ng/g
half-life ([4]; Terminal t1/2 in Retina): 168 h
half-life ([4]; t1/2 in VH): > 900 h
tissue level at time at 24 h [5]: 1210 ng/g
tissue level at time at 72 h [5]: 570 ng/g
Terminal t1/2 in Retina ([6]; male, Dutch Belted): 199 h
Mean concentration in retina ([6]; male, Dutch Belted, 0.025 mg/eye, 168 h): 1440 ng/g
VH AUC0-last of Group 1 (2 mg/mL) relative to Groups 2 and 3 (0.5 mg/mL) [6]: approximate four times greater AUC
